C[C@@H](O)[C@H]1C(=O)N2C(C(=O)[O-])=C(SC3Cn4cnc[n+]4C3)[C@H](C)[C@H]12 (stereo partly drawn)
solubility (mole fraction)
Settings	in DMF	in DMSO	in NMP	in acetone	in acetonitrile	in ethanol	in ethyl acetate	in isopropanol	in methanol	in n-propanol
283.15 K	5.8e-05	–	7.58e-05	1.77e-06	3.63e-05	1.49e-05	5.21e-05	6.66e-06	1.86e-05	1.17e-05
288.15 K	6.44e-05	–	8.14e-05	2.51e-06	4.07e-05	1.76e-05	5.73e-05	8.24e-06	2.19e-05	1.37e-05
293.15 K	7.11e-05	7.86e-05	8.79e-05	3.4e-06	4.61e-05	2.09e-05	6.48e-05	9.98e-06	2.59e-05	1.62e-05
298.15 K	7.8e-05	8.66e-05	9.66e-05	4.57e-06	5.17e-05	2.46e-05	7.16e-05	1.2e-05	3.07e-05	1.97e-05
303.15 K	8.72e-05	9.47e-05	0.000106	5.97e-06	5.82e-05	2.9e-05	7.97e-05	1.41e-05	3.57e-05	2.32e-05
308.15 K	9.65e-05	0.000104	0.000117	8.13e-06	6.67e-05	3.41e-05	8.9e-05	1.69e-05	4.18e-05	2.7e-05
313.15 K	0.000107	0.000116	0.000128	1.06e-05	7.46e-05	3.97e-05	9.93e-05	2e-05	4.9e-05	3.19e-05
318.15 K	0.000119	0.000129	0.000141	1.39e-05	8.5e-05	4.54e-05	0.000111	2.37e-05	5.63e-05	3.71e-05
323.15 K	0.000131	0.000142	0.000156	1.79e-05	9.56e-05	5.23e-05	0.000123	2.79e-05	6.61e-05	4.32e-05

Source: BigSolDB 2.1
